In the oligonucleotide strings, read from the 5' end, every base follows the letter of its sugar. An asterisk marks phosphorothioate; unmarked linkages are phosphodiester. Other units and linkages are bracketed, terminal groups are in braces. A string of capitals states the bases alone. e = 2'-O-(2-methoxyethyl) (MOE); [5mC] = 5-methylcytosine; d = 2'-deoxy (DNA)
system: human Factor 7 mRNA; assay: Inhibition of human Factor 7 mRNA by 2-10-2 MOE shortmers in HepB3 cells, electroporation, 1,000 nM; type: cell-based; settings: electroporation, 1,000 nM oligonucleotide, approximately 24 hours, relative to untreated control cells
Source text: Short antisense oligonucleotides (shortmers) were designed to target a Factor 7 nucleic acid. The shortmers in Table 17 were designed as 2-10-2 MOE gapmers. The gapmers are 14 nucleotides in length, wherein the central gap segment is comprised of 10 2′-deoxynucleotides and is flanked on both sides (in the 5′ and 3′ directions) by wings comprising 2 nucleotides each. Each nucleotide in the 5′ wing segment and each nucleotide in the 3′ wing segment has a 2′-MOE modification. The internucleoside linkages throughout each gapmer are phosphorothioate (P═S) linkages. All cytidine residues throughout each gapmer are 5-methylcytidines.
Shortmers were evaluated for their ability to reduce human Factor 7 mRNA in HepB3 cells and compared with one 5-10-5 chimeric oligonucleotide from Table 16, ISIS 407939. HepB3 cells at a density of 20,000 cells per well in a 96-well plate were transfected using electroporation with 1,000 nM of antisense oligonucleotide. After a treatment period of approximately 24 hours, RNA was isolated from the cells and Factor 7 mRNA levels were measured by real-time RT-PCR, as described herein. Factor 7 mRNA levels were adjusted according to total RNA content as measured by RIBOGREEN®. Results are presented in Table 17 as percent inhibition of Factor 7 mRNA, relative to untreated control cells. ISIS 407939 is the first oligonucleotide in […] to which the shortmers were compared, and is marked by an asterisk (*).

Substance | % inhibition of human Factor 7 mRNA
435799 (antisense e[5mC]*eT*dG*dG*dT*d[5mC]*d[5mC]*d[5mC]*d[5mC]*dA*dT*d[5mC]*eT*eG) [compound 435799] | 33%
435651 (antisense eA*e[5mC]*dA*dG*dT*dT*d[5mC]*d[5mC]*dG*dG*d[5mC]*d[5mC]*e[5mC]*eT) [compound 435651] | 71%
435823 (antisense eT*eG*dA*dG*dT*d[5mC]*d[5mC]*d[5mC]*dA*dG*dG*d[5mC]*eT*eG) [compound 435823] | 41%
435680 (antisense eG*eT*dG*d[5mC]*dT*d[5mC]*dG*d[5mC]*dT*dG*dA*dG*eG*eT) [compound 435680] | 52%
435492 (antisense eA*e[5mC]*d[5mC]*d[5mC]*dT*dG*dG*dT*dG*dT*dA*d[5mC]*eA*e[5mC]) [compound 435492] | 45%
435695 (antisense eG*eA*d[5mC]*dT*dG*d[5mC]*dT*dG*d[5mC]*dA*dG*dG*e[5mC]*eA) [compound 435695] | 48%
435675 (antisense eT*eG*dT*d[5mC]*dG*dA*dA*dA*d[5mC]*dA*dG*dT*eG*eG) [compound 435675] | 24%
435760 (antisense eT*e[5mC]*dT*dT*dG*dG*dG*dT*dG*dT*dG*dG*eA*eT) [compound 435760] | 17%
435650 (antisense e[5mC]*e[5mC]*dG*dG*d[5mC]*d[5mC]*d[5mC]*dT*d[5mC]*dG*dA*dA*eG*eG) [compound 435650] | 6%
435674 (antisense eA*eA*dA*d[5mC]*dA*dG*dT*dG*dG*dG*d[5mC]*d[5mC]*eG*e[5mC]) [compound 435674] | 34%
435756 (antisense eT*eG*d[5mC]*d[5mC]*d[5mC]*dA*dG*dG*dA*d[5mC]*dG*dG*e[5mC]*e[5mC]) [compound 435756] | 20%
435731 (antisense eG*eT*dG*dA*dG*dA*dG*d[5mC]*dT*dA*dA*dA*e[5mC]*eA) [compound 435731] | 11%
435817 (antisense e[5mC]*eT*dG*dA*dG*d[5mC]*dT*dT*dG*dG*d[5mC]*dA*e[5mC]*e[5mC]) [compound 435817] | 39%
435780 (antisense eG*eG*dA*dG*dG*dG*dA*d[5mC]*dG*dA*d[5mC]*d[5mC]*eT*eT) [compound 435780] | 28%
435497 (antisense eG*eG*dG*dA*dG*dA*d[5mC]*d[5mC]*d[5mC]*dT*dG*dG*eT*eG) [compound 435497] | 27%
435808 (antisense e[5mC]*eT*d[5mC]*dT*dG*dG*dA*d[5mC]*dA*d[5mC]*d[5mC]*dG*eG*eG) [compound 435808] | 66%
435757 (antisense eT*eG*d[5mC]*d[5mC]*dT*dG*dA*dG*dT*dG*d[5mC]*d[5mC]*e[5mC]*e[5mC]) [compound 435757] | 51%
435659 (antisense eT*eA*d[5mC]*d[5mC]*d[5mC]*d[5mC]*dT*d[5mC]*dG*dT*dG*dG*e[5mC]*eA) [compound 435659] | 18%
435767 (antisense e[5mC]*eA*d[5mC]*d[5mC]*dA*dA*dG*dT*dT*dT*dA*dT*eG*eG) [compound 435767] | 0%
435837 (antisense e[5mC]*eT*d[5mC]*dG*d[5mC]*d[5mC]*dT*dG*dG*dA*dA*dG*eG*eA) [compound 435837] | 37%
435729 (antisense eA*e[5mC]*dA*dG*d[5mC]*dA*d[5mC]*dA*d[5mC]*dA*dT*dG*eG*eA) [compound 435729] | 30%
435482 (antisense eT*eG*dG*dG*dT*d[5mC]*dA*dT*d[5mC]*dA*dG*d[5mC]*e[5mC]*eG) [compound 435482] | 62%
435792 (antisense eT*eG*d[5mC]*dT*dG*dA*dA*dG*dA*dA*dA*d[5mC]*eT*eG) [compound 435792] | 9%
435769 (antisense eT*eT*d[5mC]*dT*dT*dT*dG*dA*dA*dA*dA*dA*eT*eA) [compound 435769] | 0%
435667 (antisense eA*eA*dT*dT*d[5mC]*dG*dG*d[5mC]*d[5mC]*dT*dT*dG*eG*eG) [compound 435667] | 16%
435764 (antisense eT*eG*dA*dG*dA*dG*d[5mC]*dT*dG*d[5mC]*dA*d[5mC]*e[5mC]*eT) [compound 435764] | 8%

Substance | % inhibition of human Factor 7 mRNA
435664 (antisense eT*eT*dT*dT*dT*d[5mC]*d[5mC]*dA*d[5mC]*dA*dT*dG*eG*eA) [compound 435664] | 4%
435770 (antisense e[5mC]*eT*d[5mC]*dT*dG*dA*dG*dA*dG*dG*d[5mC]*d[5mC]*e[5mC]*e[5mC]) [compound 435770] | 81%
435483 (antisense e[5mC]*eT*dG*dG*dG*dT*d[5mC]*dA*dT*d[5mC]*dA*dG*e[5mC]*e[5mC]) [compound 435483] | 82%
435779 (antisense eT*eG*dA*dG*d[5mC]*dG*d[5mC]*dG*dG*dA*dA*dG*eA*eA) [compound 435779] | 50%
435478 (antisense eG*eA*dG*dG*d[5mC]*dA*d[5mC]*dA*d[5mC]*dT*dG*dG*eT*e[5mC]) [compound 435478] | 43%
435690 (antisense eG*eT*d[5mC]*d[5mC]*dG*dT*dT*d[5mC]*dG*dG*dG*d[5mC]*eA*eG) [compound 435690] | 55%
435682 (antisense eG*eG*dA*dT*dG*dA*dT*dG*dA*d[5mC]*d[5mC]*dT*eG*e[5mC]) [compound 435682] | 36%
435684 (antisense eA*eG*d[5mC]*dA*dG*d[5mC]*dG*d[5mC]*dG*dA*dT*dG*eT*e[5mC]) [compound 435684] | 56%
435839 (antisense eG*eG*dT*d[5mC]*dA*dG*d[5mC]*dT*dG*dG*dT*d[5mC]*eT*eG) [compound 435839] | 14%
435499 (antisense e[5mC]*eT*dG*dG*dG*dA*dG*dA*d[5mC]*d[5mC]*d[5mC]*dT*eG*eG) [compound 435499] | 59%
435796 (antisense eT*eG*dA*d[5mC]*d[5mC]*dA*d[5mC]*dA*d[5mC]*dA*dT*dT*eT*e[5mC]) [compound 435796] | 30%
435640 (antisense eT*eG*dT*dA*dA*dG*dA*dA*dA*dT*d[5mC]*d[5mC]*eA*eG) [compound 435640] | 2%
435822 (antisense e[5mC]*e[5mC]*dA*dG*dG*dA*dG*d[5mC]*d[5mC]*dT*dT*dT*eA*e[5mC]) [compound 435822] | 37%
435657 (antisense eG*e[5mC]*dA*dG*dT*dA*d[5mC]*dT*dG*d[5mC]*dT*d[5mC]*eA*e[5mC]) [compound 435657] | 69%
435840 (antisense eG*eG*dG*d[5mC]*d[5mC]*d[5mC]*dG*d[5mC]*d[5mC]*dA*d[5mC]*dT*eG*eG) [compound 435840] | 0%
435689 (antisense eT*eT*d[5mC]*dG*dG*dG*d[5mC]*dA*dG*dG*d[5mC]*dA*eG*eA) [compound 435689] | 23%
435834 (antisense eT*eG*dA*d[5mC]*dA*dG*d[5mC]*dA*d[5mC]*dG*dA*dA*eG*e[5mC]) [compound 435834] | 20%
435636 (antisense eG*eA*dG*dA*d[5mC]*d[5mC]*dA*dT*dG*dA*dT*dG*eA*eA) [compound 435636] | 13%
435484 (antisense e[5mC]*e[5mC]*dT*dG*dG*dG*dT*d[5mC]*dA*dT*d[5mC]*dA*eG*e[5mC]) [compound 435484] | 45%
435496 (antisense eG*eG*dA*dG*dA*d[5mC]*d[5mC]*d[5mC]*dT*dG*dG*dT*eG*eT) [compound 435496] | 47%
435666 (antisense eG*eG*dT*dT*dT*dG*d[5mC]*dT*dG*dG*d[5mC]*dA*eT*eT) [compound 435666] | 71%
435487 (antisense eA*eG*dT*d[5mC]*d[5mC]*dT*dG*dG*dG*dT*d[5mC]*dA*eT*e[5mC]) [compound 435487] | 36%
435643 (antisense e[5mC]*eT*dT*dG*d[5mC]*dA*dG*dG*dA*dG*d[5mC]*d[5mC]*e[5mC]*e[5mC]) [compound 435643] | 51%
435806 (antisense eT*eG*dA*d[5mC]*d[5mC]*d[5mC]*d[5mC]*dA*d[5mC]*dA*dG*dG*eG*eA) [compound 435806] | 7%
435489 (antisense e[5mC]*eT*dG*dG*dT*dG*dT*dA*d[5mC]*dA*d[5mC]*d[5mC]*e[5mC]*e[5mC]) [compound 435489] | 72%
